Measurements: patent US8927717B1, “Thiochromeno[2,3-c]quinolin-12-one derivatives, preparation method and application thereof” (National Defense Medical Center, priority 2014, dated 2015)

What was measured:
SR = type: cell-based; details: Leukemia; 10^−5 molar; 48 hours; SRB
A549/ATCC = type: cell-based; details: Non-small cell lung cancer; 10^−5 molar; 48 hours; SRB
MCF7 = type: cell-based; details: Breast cancer; 10^−5 molar; 48 hours; SRB
786-0 = type: cell-based; details: Renal cancer; 10^−5 molar; 48 hours; SRB
OVCAR-4 = type: cell-based; details: Ovarian cancer; 10^−5 molar; 48 hours; SRB
DU-145 = type: cell-based; details: Prostate cancer; 10^−5 molar; 48 hours; SRB
SF-539 = type: cell-based; details: CNS cancer; 10^−5 molar; 48 hours; SRB
SF-295 = type: cell-based; details: CNS cancer; 10^−5 molar; 48 hours; SRB
SK-MEL-2 = type: cell-based; details: Melanoma; 10^−5 molar; 48 hours; SRB
SW-620 = type: cell-based; details: Colon cancer; 10^−5 molar; 48 hours; SRB
BT-549 = type: cell-based; details: Breast cancer; 10^−5 molar; 48 hours; SRB
UACC-62 = type: cell-based; details: Melanoma; 10^−5 molar; 48 hours; SRB
SK-MEL-5 = type: cell-based; details: Melanoma; 10^−5 molar; 48 hours; SRB
HT29 = type: cell-based; details: Colon cancer; 10^−5 molar; 48 hours; SRB
SNB-75 = type: cell-based; details: CNS cancer; 10^−5 molar; 48 hours; SRB
HCT-116 = type: cell-based; details: Colon cancer; 10^−5 molar; 48 hours; SRB
UO-31 = type: cell-based; details: Renal cancer; 10^−5 molar; 48 hours; SRB
OVCAR-8 = type: cell-based; details: Ovarian cancer; 10^−5 molar; 48 hours; SRB
OVCAR-5 = type: cell-based; details: Ovarian cancer; 10^−5 molar; 48 hours; SRB
RXF 393 = type: cell-based; details: Renal cancer; 10^−5 molar; 48 hours; SRB
PC-3 = type: cell-based; details: Prostate cancer; 10^−5 molar; 48 hours; SRB
MALME-3M = type: cell-based; details: Melanoma; 10^−5 molar; 48 hours; SRB
A498 = type: cell-based; details: Renal cancer; 10^−5 molar; 48 hours; SRB
K-562 = type: cell-based; details: Leukemia; 10^−5 molar; 48 hours; SRB
HCT-15 = type: cell-based; details: Colon cancer; 10^−5 molar; 48 hours; SRB
NCI-H522 = type: cell-based; details: Non-small cell lung cancer; 10^−5 molar; 48 hours; SRB
HL-60(TB) = type: cell-based; details: Leukemia; 10^−5 molar; 48 hours; SRB
CAKI-1 = type: cell-based; details: Renal cancer; 10^−5 molar; 48 hours; SRB
HS 578T = type: cell-based; details: Breast cancer; 10^−5 molar; 48 hours; SRB
HCC-2998 = type: cell-based; details: Colon cancer; 10^−5 molar; 48 hours; SRB
NCI-H226 = type: cell-based; details: Non-small cell lung cancer; 10^−5 molar; 48 hours; SRB
60 cancer cell lines = assay: NCI 60-cell screen, SRB, whole panel (mean, delta, range); type: cell-based; details: 10^−5 molar, 48 hours, SRB
OVCAR-3 = type: cell-based; details: Ovarian cancer; 10^−5 molar; 48 hours; SRB
MDA-MB-486 = type: cell-based; details: Breast cancer; 10^−5 molar; 48 hours; SRB
SNB-19 = type: cell-based; details: CNS cancer; 10^−5 molar; 48 hours; SRB
UACC-257 = type: cell-based; details: Melanoma; 10^−5 molar; 48 hours; SRB
KM12 = assay: cells; type: cell-based; details: Colon cancer; 10^−5 molar; 48 hours; SRB
SK-OV-3 = type: cell-based; details: Ovarian cancer; 10^−5 molar; 48 hours; SRB
NCI-H460 = type: cell-based; details: Non-small cell lung cancer; 10^−5 molar; 48 hours; SRB
MOLT-4 = type: cell-based; details: Leukemia; 10^−5 molar; 48 hours; SRB
SK-MEL-28 = type: cell-based; details: Melanoma; 10^−5 molar; 48 hours; SRB
MDA-MB-435 = type: cell-based; details: Melanoma; 10^−5 molar; 48 hours; SRB
SF-268 = type: cell-based; details: CNS cancer; 10^−5 molar; 48 hours; SRB
LOX IMVI = type: cell-based; details: Melanoma; 10^−5 molar; 48 hours; SRB
CCRF-CEM = type: cell-based; details: Leukemia; 10^−5 molar; 48 hours; SRB
TK-10 = type: cell-based; details: Renal cancer; 10^−5 molar; 48 hours; SRB
MDA-MB-231/ATCC = type: cell-based; details: Breast cancer; 10^−5 molar; 48 hours; SRB
ACHN = type: cell-based; details: Renal cancer; 10^−5 molar; 48 hours; SRB
U251 = type: cell-based; details: CNS cancer; 10^−5 molar; 48 hours; SRB
NCI/ADR-RES = type: cell-based; details: Ovarian cancer; 10^−5 molar; 48 hours; SRB
COLO 205 = type: cell-based; details: Colon cancer; 10^−5 molar; 48 hours; SRB
T-47D = type: cell-based; details: Breast cancer; 10^−5 molar; 48 hours; SRB
HOP-92 = type: cell-based; details: Non-small cell lung cancer; 10^−5 molar; 48 hours; SRB
RPMI-8226 = type: cell-based; details: Leukemia; 10^−5 molar; 48 hours; SRB
M14 = type: cell-based; details: Melanoma; 10^−5 molar; 48 hours; SRB
NCI-H23 = type: cell-based; details: Non-small cell lung cancer; 10^−5 molar; 48 hours; SRB
HOP-62 = type: cell-based; details: Non-small cell lung cancer; 10^−5 molar; 48 hours; SRB
SN12C = type: cell-based; details: Renal cancer; 10^−5 molar; 48 hours; SRB
IGROV1 = type: cell-based; details: Ovarian cancer; 10^−5 molar; 48 hours; SRB

With `O=c1c2ccc(Cl)cc2sc2c(Cl)nc3ccccc3c12` [Compound 3, 6,9-Dichloro-12H-thiochromeno[2,3-c]quinolin-12-one] the “Growth percent SR” value (SR) was 89.02%, the “Growth percent A549/ATCC” value (A549/ATCC) was 104.74% and the “Growth percent MCF7 (Table 2: MCF)” value (MCF7) was 82.58%. For the same compound, the “Growth percent 786-0” value (786-0) was 105.25%, the “Growth percent OVCAR-4” value (OVCAR-4) was 87.91% and the “Growth percent DU-145” value (DU-145) was 114.27%. For the same compound, the “Growth percent SF-539” value (SF-539) was 89.02%, the “Growth percent SF-295” value (SF-295) was 90.26% and the “Growth percent SK-MEL-2” value (SK-MEL-2) was 95.54%. The “Growth percent SW-620” value (SW-620) was 99.06%, the “Growth percent BT-549” value (BT-549) was 110.01% and the “Growth percent UACC-62” value (UACC-62) was 89.69%. The “Growth percent SK-MEL-5” value (SK-MEL-5) was 97.42%, the “Growth percent HT29” value (HT29) was 99.73% and the “Growth percent SNB-75” value (SNB-75) was 77.88%. The “Growth percent HCT-116” value (HCT-116) was 102.27%, the “Growth percent UO-31” value (UO-31) was 66.06% and the “Growth percent OVCAR-8” value (OVCAR-8) was 101.62%. The “Growth percent OVCAR-5” value (OVCAR-5) was 100.07%, the “Growth percent RXF 393” value (RXF 393) was 102.55% and the “Growth percent PC-3” value (PC-3) was 91.59%. The “Growth percent MALME-3M” value (MALME-3M) was 95.87%, the “Growth percent A498” value (A498) was 106.06% and the “Growth percent K-562” value (K-562) was 101.04%. For the same compound, the “Growth percent HCT-15” value (HCT-15) was 102.28%, the “Growth percent NCI-H522” value (NCI-H522) was 96.81% and the “Growth percent HL-60(TB)” value (HL-60(TB)) was 99.34%. For the same compound, the “Growth percent CAKI-1” value (CAKI-1) was 94.31%, the “Growth percent HS 578T” value (HS 578T) was 95.14% and the “Growth percent HCC-2998” value (HCC-2998) was 123.28%. For the same compound, the “Growth percent NCI-H226” value (NCI-H226) was 83.41%, the “Growth percent, Delta” value (60 cancer cell lines; delta over the cell panel) was 32.05% and the “Growth percent, Mean” value (60 cancer cell lines; mean over the cell panel) was 98.11%. For the same compound, the “Growth percent, Range” value (60 cancer cell lines; range over the cell panel) was 57.22%, the “Growth percent OVCAR-3” value (OVCAR-3) was 111.27% and the “Growth percent MDA-MB-486” value (MDA-MB-486) was 98.57%. For the same compound, the “Growth percent SNB-19” value (SNB-19) was 107.89%, the “Growth percent UACC-257” value (UACC-257) was 104.47% and the “Growth percent KM12” value (KM12) was 111.27%. For the same compound, the “Growth percent SK-OV-3” value (SK-OV-3) was 101.32%, the “Growth percent NCI-H460” value (NCI-H460) was 103.14% and the “Growth percent MOLT-4” value (MOLT-4) was 98.04%. The “Growth percent SK-MEL-28” value (SK-MEL-28) was 101.80%, the “Growth percent MDA-MB-435” value (MDA-MB-435) was 100.64% and the “Growth percent SF-268” value (SF-268) was 109.60%. For the same compound, the “Growth percent LOX IMVI” value (LOX IMVI) was 90.53%, the “Growth percent CCRF-CEM” value (CCRF-CEM) was 93.12% and the “Growth percent TK-10” value (TK-10) was 108.56%. For the same compound, the “Growth percent MDA-MB-231/ATCC” value (MDA-MB-231/ATCC) was 84.28%, the “Growth percent ACHN” value (ACHN) was 86.84% and the “Growth percent U251” value (U251) was 101.71%. For the same compound, the “Growth percent NCI/ADR-RES” value (NCI/ADR-RES) was 102.80%, the “Growth percent COLO 205” value (COLO 205) was 112.15% and the “Growth percent T-47D” value (T-47D) was 110.10%. The “Growth percent HOP-92” value (HOP-92) was 90.83%, the “Growth percent RPMI-8226” value (RPMI-8226) was 100.19% and the “Growth percent M14” value (M14) was 106.18%. For the same compound, the melting point was 259 to 261 °C, the “Growth percent NCI-H23” value (NCI-H23) was 85.12% and the “Growth percent HOP-62” value (HOP-62) was 82.02%. The “Growth percent SN12C” value (SN12C) was 95.92% and the “Growth percent IGROV1” value (IGROV1) was 96.06%.
